Test results published in patent US8859581B2, “Azaheterocyclic compounds as kinase inhibitors” (Merck Patent GmbH, priority 2005, dated 2014).

Experiments:
IGF1R = target: T1, IGF1R (Homo sapiens, UniProt P08069); test: Inhibition of IGF-1R (IC50): IGF1-stimulated IGF1R autophosphorylation in human tumour cells, Capture-ELISA or LUMINEX; type: cell-based; details: human tumour cells expressing IGF1R (for example MCF-7 or Calu-6); 45 min pre-treatment, IGF1 stimulation 5 min; read-out: IC50 (μM), IGF1R
T1 construct: endogenous in cells
T1 sequence (P08069 31-1367): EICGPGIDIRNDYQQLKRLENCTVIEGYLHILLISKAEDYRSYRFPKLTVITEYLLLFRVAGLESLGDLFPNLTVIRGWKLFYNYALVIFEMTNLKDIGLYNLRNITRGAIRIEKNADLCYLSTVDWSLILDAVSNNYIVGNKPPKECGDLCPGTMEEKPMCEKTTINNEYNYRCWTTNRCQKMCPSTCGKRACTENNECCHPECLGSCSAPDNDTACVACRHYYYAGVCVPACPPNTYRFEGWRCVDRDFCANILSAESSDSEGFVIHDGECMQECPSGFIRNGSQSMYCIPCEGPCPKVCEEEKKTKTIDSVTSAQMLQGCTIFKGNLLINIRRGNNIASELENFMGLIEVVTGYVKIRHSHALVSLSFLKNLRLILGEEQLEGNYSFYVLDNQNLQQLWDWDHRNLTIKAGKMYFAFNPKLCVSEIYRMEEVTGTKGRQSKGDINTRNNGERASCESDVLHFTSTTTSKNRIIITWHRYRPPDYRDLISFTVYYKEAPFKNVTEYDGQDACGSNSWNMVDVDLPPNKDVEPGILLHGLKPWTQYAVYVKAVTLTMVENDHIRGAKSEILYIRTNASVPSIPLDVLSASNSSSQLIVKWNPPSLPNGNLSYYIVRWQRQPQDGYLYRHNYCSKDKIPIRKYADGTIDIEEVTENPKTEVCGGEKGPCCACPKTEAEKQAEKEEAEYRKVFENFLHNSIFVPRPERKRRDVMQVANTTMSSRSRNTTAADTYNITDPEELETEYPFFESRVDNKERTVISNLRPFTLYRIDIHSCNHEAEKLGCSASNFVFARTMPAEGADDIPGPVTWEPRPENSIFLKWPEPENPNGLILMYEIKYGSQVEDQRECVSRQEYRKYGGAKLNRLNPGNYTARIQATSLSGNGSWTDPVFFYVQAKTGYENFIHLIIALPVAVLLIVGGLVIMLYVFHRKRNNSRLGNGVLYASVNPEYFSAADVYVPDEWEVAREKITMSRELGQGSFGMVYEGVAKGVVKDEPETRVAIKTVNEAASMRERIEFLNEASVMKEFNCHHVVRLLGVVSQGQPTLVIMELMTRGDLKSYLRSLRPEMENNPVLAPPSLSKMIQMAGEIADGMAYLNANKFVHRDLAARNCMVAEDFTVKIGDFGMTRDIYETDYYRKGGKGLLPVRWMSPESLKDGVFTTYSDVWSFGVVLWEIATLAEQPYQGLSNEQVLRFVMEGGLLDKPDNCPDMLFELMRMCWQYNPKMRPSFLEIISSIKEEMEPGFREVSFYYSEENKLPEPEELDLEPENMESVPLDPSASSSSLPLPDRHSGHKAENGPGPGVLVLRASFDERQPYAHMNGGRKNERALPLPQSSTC
Method: Cultivated human tumour cells which express the IGF1 receptor (IGF1R) (for example MCF-7 or Calu-6) are stimulated using human IGF1, the natural ligand of IGF1R. The stimulation induces autophosphorylation of tyrosine residues in the cytoplasmatic IGF1R domain, which triggers signal transduction cascades, which result in apoptosis inhibition and cell proliferation.
The amount of phosphorylated IGF1R is determined by a receptor-specific Capture-ELISA or an analogous LUMINEX assay. The IGF1R from cell lysates is bound to a 96-well ELISA plate or LUMINEX beads (“capturing”) by means of a specific antibody, and the tyrosine phosphorylation is detected using a biotin-labelled anti-phosphotyrosine antibody and a streptavidin peroxidase conjugate by a chemoluminescence method or by means of a fluorescence-labelled anti-phosphotyrosine antibody, In order to determine the activity of kinase inhibitors, cells are pre-treated with increasing concentrations of these compounds for 45 min and subsequently stimulated using IGF1 for 5 min. As internal control, the biological activity of the ligand IGF1 is checked and a concentration series of an IGF1R reference inhibitor measured.

Row | SMILES | IC50 (IGF1R) [µM] | melting point [°C]
1 | NCCCCCn1cc(-c2cccc(OCc3ccccc3)c2)c2c(N)nccc21 [Compound 69] | 5.7 | 75 to 78
2 | NCC1CC(n2cc(-c3cccc(OCc4ccccc4)c3)c3c(N)nccc32)C1 (centres unmarked) [Compound 73] | 0.91 | 
3 | NCCn1cc(-c2cccc(OCc3ccccc3)c2)c2cnccc21 [Compound 72] | 25 | 
4 | COc1cc(-c2cc3c(Nc4cccc(F)c4)ccnc3[nH]2)cc(OC)c1OC [Compound 4] | 0.86 | 80 to 81
5 | COc1cc(-c2cc3c(Nc4cccc(C#N)c4)ccnc3[nH]2)cc(OC)c1OC [Compound 11] | 1.6 | 
6 | COc1cc(-c2cc3c(NCCc4cccnc4)ccnc3[nH]2)cc(OC)c1OC [Compound 9] | 1.2 | 
